Reference: US20210236528A1, “COMPOSITION COMPRISING ISOMERS OF INOSITOL AND ITS USE” (SOCIETE DES PRODUITS NESTLE S.A., priority 2019, published 2021)

What was measured:
[1] = Plasma inositol isomers levels by glucose tolerance status (UHPLC-MSMS), withdrawn women from study 2; type: in vivo, human; conditions: endogenous level; for Plasma inositol isomers levels, Mean: no administration; for plasma concentration in subjects with impaired glucose tolerance or type II diabetes in comparison to normal glucose tolerance / average plasma concentration in Asian subjects in comparison to Caucasian subjects: result in words; for average plasma concentration in Asian subjects in comparison to Caucasian subjects: subjects not having prediabetes or type II diabetes
Procedure: (§1) Only withdrawn women from this study 2 were included in this sub-study. Women were from UK (N=46), NZ (N=89), SG (N=117). All the data (anthropometric and biochemical parameters) were collected and measured. Plasma and urine inositol isomers were measured using a new validated UHPLC-MSMS method. Study 2 was approved by different Institutional Review Boards and the study design published (Godfrey K M et al, Trials. 2017 Mar. 20; 18(1):131.). Subjects were classified as normoglycemic (NGT), impaired glucose tolerance (IGT), and type 2 diabetic mellitus (T2DM) based upon the results of fasting glucose and the oral glucose tolerance test (OGTT). Subjects with 2-hours glucose were levels <7.8 mmol/L were considered as normal glucose tolerant (NGT), while those with 2-hour glucose between 7.8-11.1 mmol/L were deemed as having impaired glucose tolerance (IGT). Individuals with fasting plasma glucose (IFG) level 5.6 mmol/L) were classified as having impaired fasting glucose. Both IFG and IGT subjects were grouped together. Subjects with 2-hours glucose >11.1 mmol/L were considered as having type 2 diabetic mellitus (T2DM). NGT group was further divided into 2 sub-groups named NGT with a “favorable” metabolic risk profile (abbreviated NGT_fav) and NGT with an “unfavorable” metabolic risk profile (abbreviated NGT_Unfav) to take into account the hyperinsulinemia affecting subjects in the NGT group. Inclusion criteria for NGT subjects with a favorable risk profile (NGT_fav) were the following ones: BMI<25 for Caucasian and <23 for Asian subjects; waist <80 cm; waist/hip ratio […]; HOMA2-IR<1.21. IGT/IFG and T2DM subjects were also grouped together into a dysglycemic group. In total, […] were reported: NGT_all; NGT_fav; NGT_unfav; IGT/IFG and; T2DM.
(§2) Blood samples were collected into EDTA-containing tubes and spot urine samples were collected and frozen at −80° C. until analysis. For inositol isomers determination, analysis was performed on an Accela UHPLC (Thermo Fisher Scientific Inc., Waltham, Mass., USA) coupled to a TSQ Vantage triple quadrupole (Thermo Fisher Scientific Inc., Waltham, Mass., USA) equipped with a heated electrospray ionization (HESI) source in negative mode. Chromatographic separation was achieved using gradient elution on an UHPLC Acquity BEH Amide (1.7 μm, 2.1 mm×150 mm) column and guard column (Vanguard BEH Amide 1.7 μm, 2.1 mm×10 mm; Waters Corporation, Milford, Mass., USA) at 30° C. at a flow rate of 400 μL/min. Mobile phase consisted of 90% acetonitrile-NH4OH 0.04% (eluent A) and 50% acetonitrile-NH4OH 0.04% (eluent B). Column temperature was kept at 30° C. The injection volumes were 3 μL and 5 μL for urine and plasma respectively. Plasma samples were thawed and briefly vortexed before transferring 100 μL of the sample into a 1.5 mL microtube. 50 μL of [2H6]-myo-inositol, then 500 μL of ACN containing 1% of formic acid were added for protein precipitation. The tubes were vortexed for 1 min and centrifuged at 10,000×g for 3 min. Supernatants were transferred into an SPE Ostro 96 well plate for phospholipid removal. Positive pressure (about 8 psi) was applied for elution and the filtrates were then evaporate to dryness in a vacuum centrifuge (45° C., 5 mbar, 6 h). Dry residues were dissolved in 400 μL of water and transferred into a 0.45 μm centrifugal filter containing 175 mg of mixed bed ion exchange resin Amberlite MB-3. Tubes were spun at 3000×g for 2 min then the filtrates were evaporated to dryness in vacuum centrifuge at 45° C., 5 mbar for 2 h. Finally, residues were reconstituted in vials with 80 μL of ACN/water (60/40) and injected for analysis.
Statistical analysis was performed using R software (version 3.2.3). Mean and standard deviation were calculated. The statistical model used as covariate the glucose tolerance status, the ethnicity, the menstrual cycle, the age of the subjects and the BMI. For some statistical analysis some raw data were log transformed in view of their distribution. […]

[2] = Urinary inositol isomers excretion by glucose tolerance status (UHPLC-MSMS), withdrawn women from study 2; type: in vivo, human; conditions: endogenous, spot urine
Procedure: as §1, §2
Urine samples were thawed and briefly vortexed before transferring 150 μL of sample into a 1.5-mL microtube. 100 μL of [2H6]-myo-inositol was added and the mixture was transferred into a 0.45 μm centrifugal filter containing 175 mg of mixed bed ion exchange resin Amberlite MB-3. […]

Row | SMILES | Plasma inositol isomers levels, Mean ([1]; IGT/IFG group, N=41 women) [µmol/L] | Plasma inositol isomers levels, Mean ([1]; NGT (all) group, N=182 women) [µmol/L] | Plasma inositol isomers levels, Mean ([1]; NGT_Fav group, N=63 women) [µmol/L] | Plasma inositol isomers levels, Mean ([1]; NGT_Unfav group, N=119 women) [µmol/L] | Plasma inositol isomers levels, Mean ([1]; T2DM group, N=26 women) [µmol/L] | Urinary inositol isomers excretion, Mean ([2]; IGT/IFG group) | Urinary inositol isomers excretion, Mean ([2]; NGT (all) group) | Urinary inositol isomers excretion, Mean ([2]; NGT_Fav group) | Urinary inositol isomers excretion, Mean ([2]; NGT_Unfav group) | Urinary inositol isomers excretion, Mean ([2]; T2DM group) | plasma concentration in subjects with impaired glucose tolerance or type II diabetes in comparison to normal glucose tolerance [1] | average plasma concentration in Asian subjects in comparison to Caucasian subjects [1]
1 | OC1C(O)C(O)C(O)C(O)C1O (stereo not shown) [Chiro-inositol] | 0.32 | 0.23 | 0.26 | 0.22 | 0.22 | 0.20 μmol/mmol of creatinine | 0.24 μmol/mmol of creatinine | 0.26 μmol/mmol of creatinine | 0.22 μmol/mmol of creatinine | 0.42 μmol/mmol of creatinine |  | 
2 | O[C@H]1[C@H](O)[C@@H](O)[C@H](O)[C@@H](O)[C@H]1O [Myo-inositol, cis-1,2,3,5-trans-4,6cyclohexanehexol] | 23.23 | 25.91 | 25.44 | 26.16 | 24.66 | 6.35 μmol/mmol of creatinine | 9.21 μmol/mmol of creatinine | 10.86 μmol/mmol of creatinine | 8.33 μmol/mmol of creatinine | 17.97 μmol/mmol of creatinine | lower | lower
3 | O[C@H]1[C@H](O)[C@@H](O)[C@H](O)[C@@H](O)[C@@H]1O [Scyllo-inositol, (1r,2r,3r,4r,5r,6r)-Cyclohexane-1,2,3,4,5,6-hexol] | 0.46 | 0.67 | 0.72 | 0.64 | 0.37 | 3.31 μmol/mmol of creatinine | 5.04 μmol/mmol of creatinine | 6.34 μmol/mmol of creatinine | 4.34 μmol/mmol of creatinine | 3.36 μmol/mmol of creatinine | lower | lower
